Where “and” joins values, the source holds several entries; their conditions need not be identical. Equal entries are not always repeated. Inconclusive results and toxic doses are left out. How the source made its calls: active means survival T/C of 150% or more; inactive means T/C below 125% in these data.
System: CD2F1 mice, L1210 leukemia ip, survival T/C
Assay: NCI In Vivo Anticancer Drug Screen. Data for tumor model L1210 Leukemia (intraperitoneal) in CD2F1 (CDF1) mice
Settings: higher = longer survival
How it was run: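 Read-out first: treated-group measurement over vehicle-control measurement, expressed as a ratio. Animals bore a transplanted tumor line and were dosed with compound or vehicle.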

[1] = endpoint: mean survival time, dose: 100.0 mg/kg/injection, schedule: Q01DX001 (ip), vehicle: Klucel (hydroxypropylcellulose) (HPC)
[2] = endpoint: mean survival time, dose: 200.0 mg/kg/injection, schedule: Q01DX001 (ip), vehicle: Klucel (hydroxypropylcellulose) (HPC)
[3] = endpoint: mean survival time, dose: 400.0 mg/kg/injection, schedule: Q01DX001 (ip), vehicle: Klucel (hydroxypropylcellulose) (HPC)
[4] = endpoint: mean survival time, dose: 100.0 mg/kg/injection, schedule: Q04DX003 (ip), vehicle: saline with Tween-80
[5] = endpoint: mean survival time, dose: 200.0 mg/kg/injection, schedule: Q04DX003 (ip), vehicle: saline with Tween-80
[6] = endpoint: mean survival time, dose: 25.0 mg/kg/injection, schedule: Q01DX005 (ip), vehicle: water
[7] = endpoint: mean survival time, dose: 50.0 mg/kg/injection, schedule: Q01DX005 (ip), vehicle: water
[8] = endpoint: mean survival time, dose: 100.0 mg/kg/injection, schedule: Q01DX005 (ip), vehicle: water
[9] = endpoint: mean survival time, dose: 100.0 mg/kg/injection, schedule: Q01DX009 (ip), vehicle: saline with Tween-80
[10] = endpoint: mean survival time, dose: 200.0 mg/kg/injection, schedule: Q01DX009 (ip), vehicle: saline with Tween-80
[11] = endpoint: mean survival time, dose: 400.0 mg/kg/injection, schedule: Q04DX003 (ip), vehicle: saline with Tween-80
[12] = endpoint: mean survival time, dose: 400.0 mg/kg/injection, schedule: Q01DX009 (ip), vehicle: saline with Tween-80
[13] = endpoint: mean survival time, dose: 200.0 mg/kg/injection, schedule: Q01DX005 (ip), vehicle: water

Measured: T/C

CC(O)CC(C)(C)S(=O)(=O)Cc1ccccc1 (stereo unspecified)
inactive: [1] 101 % of control | [2] 86 % of control | [3] 93 % of control

Cc1ccc([I+]c2ccc(C)cc2)cc1
inactive: endpoint: mean survival time, dose: 0.25 mg/kg/injection, schedule: Q01DX009 (ip), vehicle: Klucel (hydroxypropylcellulose) (HPC) 98 % of control | endpoint: mean survival time, dose: 0.5 mg/kg/injection, schedule: Q01DX009 (ip), vehicle: Klucel (hydroxypropylcellulose) (HPC) 98 % of control | endpoint: mean survival time, dose: 1.0 mg/kg/injection, schedule: Q01DX009 (ip), vehicle: Klucel (hydroxypropylcellulose) (HPC) 105 % of control

COc1cc(/C=C2\C(=O)NC(=O)N(c3ccccc3)C2=O)cc(OC)c1OC
inactive: [4] 100 % of control | [5] 100 % of control

O=C(c1ccccc1)C(Sc1ccccc1)Sc1ccccc1
inactive: endpoint: median survival time, dose: 50.0 mg/kg/injection, schedule: Q04DX002 (ip), vehicle: saline with Tween-80 100 % of control | endpoint: median survival time, dose: 100.0 mg/kg/injection, schedule: Q04DX002 (ip), vehicle: saline with Tween-80 100 % of control | endpoint: median survival time, dose: 200.0 mg/kg/injection, schedule: Q04DX002 (ip), vehicle: saline with Tween-80 100 % of control | endpoint: median survival time, dose: 400.0 mg/kg/injection, schedule: Q04DX002 (ip), vehicle: saline with Tween-80 110 % of control

Cc1ccc(-c2nc(SCc3ccccc3)[nH]c(=O)c2CCO)cc1
inactive: endpoint: mean survival time, dose: 100.0 mg/kg/injection, schedule: Q04DX003 (ip), vehicle: Klucel (hydroxypropylcellulose) (HPC) 93 % of control | endpoint: mean survival time, dose: 200.0 mg/kg/injection, schedule: Q04DX003 (ip), vehicle: Klucel (hydroxypropylcellulose) (HPC) 96 % of control | endpoint: mean survival time, dose: 400.0 mg/kg/injection, schedule: Q04DX003 (ip), vehicle: Klucel (hydroxypropylcellulose) (HPC) 91 % of control

O=C(OC1OC(CO)C(O)C(O)C1O)c1ccccc1 (stereo unspecified)
inactive: endpoint: mean survival time, dose: 50.0 mg/kg/injection, schedule: Q01DX009 (ip), vehicle: saline 97 % of control | endpoint: mean survival time, dose: 100.0 mg/kg/injection, schedule: Q01DX009 (ip), vehicle: saline 101 % of control | endpoint: mean survival time, dose: 200.0 mg/kg/injection, schedule: Q01DX009 (ip), vehicle: saline 93 % of control

O=c1nc2c(ncn2C2OC(CO)C(O)C2O)c(NCCc2ccccc2)[nH]1 (stereo unspecified)
inactive: endpoint: mean survival time, dose: 12.5 mg/kg/injection, schedule: Q01DX005 (ip), vehicle: water 93 % of control | [6] 98 % of control | [7] 96 % of control | [8] 112 % of control

N#CCCOCC(COCCC#N)OCCC#N
inactive: endpoint: mean survival time, dose: 25.0 mg/kg/injection, schedule: Q01DX009 (ip), vehicle: saline with Tween-80 97 % of control and 103 % of control | endpoint: mean survival time, dose: 50.0 mg/kg/injection, schedule: Q01DX009 (ip), vehicle: saline with Tween-80 98 % of control and 103 % of control | [9] 97 % of control and 110 % of control | [10] 89 % of control and 103 % of control

COC(=O)COc1cccc(NC(=O)CC(=O)c2cccc([N+](=O)[O-])c2)c1
inactive: endpoint: mean survival time, dose: 100.0 mg/kg/injection, schedule: Q01DX009 (ip), vehicle: Klucel (hydroxypropylcellulose) (HPC) 98 % of control | [4] 101 % of control | endpoint: mean survival time, dose: 200.0 mg/kg/injection, schedule: Q01DX009 (ip), vehicle: Klucel (hydroxypropylcellulose) (HPC) 97 % of control | [5] 98 % of control | endpoint: mean survival time, dose: 400.0 mg/kg/injection, schedule: Q01DX009 (ip), vehicle: Klucel (hydroxypropylcellulose) (HPC) 96 % of control | [11] 93 % of control

O=C(Nc1ccccc1)Nc1ccc(N(CCCl)CCCl)cc1
inactive: [1] 105 % of control | [2] 108 % of control | [3] 114 % of control

C[Si](C)(C)CS(=O)[O-].[C-]#[O+].[C-]#[O+].[Fe+6].[c-]1[c-][c-][cH-][c-]1
inactive: endpoint: mean survival time, dose: 12.5 mg/kg/injection, schedule: Q04DX002 (ip), vehicle: saline 105 % of control | endpoint: mean survival time, dose: 25.0 mg/kg/injection, schedule: Q04DX002 (ip), vehicle: saline 94 % of control | endpoint: mean survival time, dose: 50.0 mg/kg/injection, schedule: Q04DX002 (ip), vehicle: saline 87 % of control

CC(C)(C[NH-])C[NH-].[Cl][Pt+2][Cl]
inactive: endpoint: median survival time, dose: 0.2 mg/kg/injection, schedule: Q04DX003 (ip), vehicle: water 118 % of control and 110 % of control and 111 % of control

CC(C)(C)[Si](OP(N)(=O)N(CCCl)CCCl)(c1ccccc1)c1ccccc1 (stereo unspecified)
inactive: endpoint: mean survival time, dose: 15.6 mg/kg/injection, schedule: Q01DX001 (ip), vehicle: distilled water + Tween-80 102 % of control | endpoint: mean survival time, dose: 31.3 mg/kg/injection, schedule: Q01DX001 (ip), vehicle: distilled water + Tween-80 110 % of control | endpoint: mean survival time, dose: 62.5 mg/kg/injection, schedule: Q01DX001 (ip), vehicle: distilled water + Tween-80 110 % of control | endpoint: mean survival time, dose: 125.0 mg/kg/injection, schedule: Q01DX001 (ip), vehicle: distilled water + Tween-80 122 % of control | endpoint: mean survival time, dose: 250.0 mg/kg/injection, schedule: Q01DX001 (ip), vehicle: distilled water + Tween-80 111 % of control | endpoint: mean survival time, dose: 500.0 mg/kg/injection, schedule: Q01DX001 (ip), vehicle: distilled water + Tween-80 117 % of control

COCC(=O)c1ccccc1
inactive: [9] 96 % of control | [10] 96 % of control | [12] 94 % of control

Cc1ccc(NC(=O)c2ccccc2Cl)cc1
inactive: [9] 95 % of control | [4] 95 % of control | [10] 92 % of control | [5] 96 % of control | [12] 94 % of control | [11] 93 % of control

O=C1OCCN1NCc1ccc(Cl)cc1
inactive: endpoint: mean survival time, dose: 12.5 mg/kg/injection, schedule: Q01DX009 (ip), vehicle: DMSO 88 % of control | endpoint: mean survival time, dose: 25.0 mg/kg/injection, schedule: Q01DX009 (ip), vehicle: DMSO 93 % of control | endpoint: mean survival time, dose: 50.0 mg/kg/injection, schedule: Q01DX009 (ip), vehicle: DMSO 89 % of control and 91 % of control | endpoint: mean survival time, dose: 100.0 mg/kg/injection, schedule: Q01DX009 (ip), vehicle: DMSO 96 % of control

O=C1NC(c2ccccc2)N=C2Oc3ccccc3C=C12 (stereo unspecified)
inactive: endpoint: mean survival time, dose: 1.56 mg/kg/injection, schedule: Q01DX009 (ip), vehicle: saline with Tween-80 103 % of control | endpoint: mean survival time, dose: 3.12 mg/kg/injection, schedule: Q01DX009 (ip), vehicle: saline with Tween-80 94 % of control and 97 % of control and 98 % of control | endpoint: mean survival time, dose: 6.25 mg/kg/injection, schedule: Q01DX009 (ip), vehicle: saline with Tween-80 100 % of control (2×) and 103 % of control | [9] 92 % of control

C[N+](C)=CN1c2ccccc2Sc2ccccc21
inactive: [9] 97 % of control | [10] 103 % of control

NC(Cc1c[nH]c2ccccc12)C(=O)O (stereo unspecified)
inactive: endpoint: mean survival time, dose: 50.0 mg/kg/injection, schedule: Q01DX001 (ip), vehicle: saline with Tween-80 98 % of control | endpoint: mean survival time, dose: 100.0 mg/kg/injection, schedule: Q01DX001 (ip), vehicle: saline with Tween-80 98 % of control | endpoint: mean survival time, dose: 200.0 mg/kg/injection, schedule: Q01DX001 (ip), vehicle: saline with Tween-80 101 % of control

O/N=C1/CCCc2ccccc21
inactive: [9] 98 % of control | [4] 100 % of control | [10] 101 % of control | [5] 97 % of control | [12] 104 % of control | [11] 100 % of control

CCOC(=O)C(OCC)P(=O)(OCC)OCC (stereo unspecified)
inactive: [6] 101 % of control | [7] 101 % of control | [8] 101 % of control | [13] 101 % of control | endpoint: mean survival time, dose: 400.0 mg/kg/injection, schedule: Q01DX005 (ip), vehicle: water 97 % of control

O=S(OCC1COS(=O)O1)OCC1COS(=O)O1 (stereo unspecified)
inactive: endpoint: mean survival time, dose: 100.0 mg/kg/injection, schedule: Q01DX001 (ip), vehicle: saline sonified 106 % of control | endpoint: mean survival time, dose: 200.0 mg/kg/injection, schedule: Q01DX001 (ip), vehicle: saline sonified 97 % of control | endpoint: mean survival time, dose: 400.0 mg/kg/injection, schedule: Q01DX001 (ip), vehicle: saline sonified 104 % of control

CCOC(=O)C(CC)(OC(C)=O)C(=O)C=O (stereo unspecified)
inactive: endpoint: mean survival time, dose: 100.0 mg/kg/injection, schedule: Q01DX001 (ip), vehicle: saline 108 % of control | endpoint: mean survival time, dose: 200.0 mg/kg/injection, schedule: Q01DX001 (ip), vehicle: saline 112 % of control | endpoint: mean survival time, dose: 400.0 mg/kg/injection, schedule: Q01DX001 (ip), vehicle: saline 116 % of control

CSc1nc2c(c(=O)[nH]1)c1c(N)ncnc1n2C1OC(CO)C(O)C1O (stereo unspecified)
inactive: [6] 88 % of control | [7] 94 % of control | [8] 88 % of control | [13] 100 % of control

COc1ccc(NC(=O)Oc2ccc(Cl)cc2C)cc1
inactive: endpoint: mean survival time, dose: 100.0 mg/kg/injection, schedule: Q04DX002 (ip), vehicle: saline with Tween-80 91 % of control | endpoint: mean survival time, dose: 200.0 mg/kg/injection, schedule: Q04DX002 (ip), vehicle: saline with Tween-80 94 % of control | endpoint: mean survival time, dose: 400.0 mg/kg/injection, schedule: Q04DX002 (ip), vehicle: saline with Tween-80 91 % of control

— PubChem BioAssay AID256 (DTP/NCI, 2004)
